This experiment relates to L1210 leukemia ip in BDF1 mice, survival T/C. Put plainly: NCI In Vivo Anticancer Drug Screen. Data for tumor model L1210 Leukemia (intraperitoneal) in B6D2F1 (BDF1) mice. The conditions noted are these: endpoint: mean survival time, higher = longer survival. The method in brief: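 Transplantable tumor model; survival measured in treated vs vehicle control mice. Value = treated/control.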

Where [1] appears, read: dose: 100.0 mg/kg/injection, schedule: Q01DX001 (ip), vehicle: saline with Tween-80.
Where [2] appears, read: dose: 200.0 mg/kg/injection, schedule: Q01DX001 (ip), vehicle: saline with Tween-80.
Setting [3] is: dose: 400.0 mg/kg/injection, schedule: Q01DX001 (ip), vehicle: saline with Tween-80.
[4] abbreviates: dose: 100.0 mg/kg/injection, schedule: Q04DX002 (ip), vehicle: Klucel (hydroxypropylcellulose) (HPC).
Setting [5] is: dose: 100.0 mg/kg/injection, schedule: Q04DX003 (ip), vehicle: saline with Tween-80.
Where [6] appears, read: dose: 200.0 mg/kg/injection, schedule: Q04DX003 (ip), vehicle: saline with Tween-80.
[7] abbreviates: dose: 400.0 mg/kg/injection, schedule: Q04DX003 (ip), vehicle: saline with Tween-80.
Where [8] appears, read: dose: 12.5 mg/kg/injection, schedule: Q01DX009 (ip), vehicle: Klucel (hydroxypropylcellulose) (HPC).
Where [9] appears, read: dose: 25.0 mg/kg/injection, schedule: Q01DX009 (ip), vehicle: Klucel (hydroxypropylcellulose) (HPC).
[10] abbreviates: dose: 50.0 mg/kg/injection, schedule: Q01DX009 (ip), vehicle: Klucel (hydroxypropylcellulose) (HPC).
[11] abbreviates: dose: 100.0 mg/kg/injection, schedule: Q01DX009 (ip), vehicle: Klucel (hydroxypropylcellulose) (HPC).
[12] abbreviates: dose: 200.0 mg/kg/injection, schedule: Q01DX009 (ip), vehicle: Klucel (hydroxypropylcellulose) (HPC).
Setting [13] is: dose: 400.0 mg/kg/injection, schedule: Q01DX009 (ip), vehicle: Klucel (hydroxypropylcellulose) (HPC).
[14] abbreviates: dose: 25.0 mg/kg/injection, schedule: Q04DX002 (ip), vehicle: Klucel (hydroxypropylcellulose) (HPC).
The mark [15] stands for this setting: dose: 50.0 mg/kg/injection, schedule: Q04DX002 (ip), vehicle: Klucel (hydroxypropylcellulose) (HPC).
Setting [16] is: dose: 100.0 mg/kg/injection, schedule: Q04DX003 (ip), vehicle: Klucel (hydroxypropylcellulose) (HPC).
Where [17] appears, read: dose: 200.0 mg/kg/injection, schedule: Q04DX003 (ip), vehicle: Klucel (hydroxypropylcellulose) (HPC).
The mark [18] stands for this setting: dose: 400.0 mg/kg/injection, schedule: Q04DX003 (ip), vehicle: Klucel (hydroxypropylcellulose) (HPC).

Several values for one entry are separate records, joined by “and”; a condition that tells them apart may be missing. Equal values may be shown once. Toxic doses and inconclusive results are not listed.

In the case of `O=C(NCCCN1CC1)C(=O)NCCCN1CC1`, the T/C reads like this: (dose: 1.5 mg/kg/injection, schedule: Q04DX003 (ip), vehicle: Klucel (hydroxypropylcellulose) (HPC)) 121 % of control; (dose: 2.3 mg/kg/injection, schedule: Q04DX003 (ip), vehicle: Klucel (hydroxypropylcellulose) (HPC)) 110 % of control; (dose: 3.12 mg/kg/injection, schedule: Q04DX003 (ip), vehicle: Klucel (hydroxypropylcellulose) (HPC)) 112 % of control; (dose: 5.3 mg/kg/injection, schedule: Q04DX003 (ip), vehicle: Klucel (hydroxypropylcellulose) (HPC)) 166 % of control; (dose: 8.0 mg/kg/injection, schedule: Q04DX003 (ip), vehicle: Klucel (hydroxypropylcellulose) (HPC)) 173 % of control; (dose: 12.0 mg/kg/injection, schedule: Q04DX003 (ip), vehicle: Klucel (hydroxypropylcellulose) (HPC)) 215 % of control. In addition, the T/C runs as follows: (dose: 12.5 mg/kg/injection, schedule: Q04DX003 (ip), vehicle: Klucel (hydroxypropylcellulose) (HPC)) 180 % of control; (dose: 18.0 mg/kg/injection, schedule: Q04DX003 (ip), vehicle: Klucel (hydroxypropylcellulose) (HPC)) 183 % of control.

Regarding `COc1cc(C(N)=O)cc(OC)c1OC`, the T/C was 96 % of control under setting [1], 98 % of control under setting [2] and 98 % of control under setting [3].

Take `O=C(Oc1ccc(S(=O)(=O)F)cc1Cl)c1ccc(Cl)cc1`: the T/C is, setting by setting: under setting [4], 92 % of control; (dose: 200.0 mg/kg/injection, schedule: Q04DX002 (ip), vehicle: Klucel (hydroxypropylcellulose) (HPC)) 89 % of control; (dose: 400.0 mg/kg/injection, schedule: Q04DX002 (ip), vehicle: Klucel (hydroxypropylcellulose) (HPC)) 89 % of control.

`O=C(O)C1c2ccccc2-c2c(-c3ccccc3)cccc21` (centres undefined): the T/C under setting [5] is 87 % of control, the T/C under setting [6] is 91 % of control and the T/C under setting [7] was 103 % of control.

For `Cc1ccccc1NC(=O)CI`, the T/C was 97 % of control under setting [8], 103 % of control under setting [9] and 101 % of control under setting [10].

Consider `CCCCCCCCCCCCCCCCCC(=O)N/N=C\c1c(O)ccc2ccccc12`, for which the T/C under setting [11] is 93 % of control and 90 % of control; the T/C under setting [12] was 88 % of control; the T/C under setting [13] was 89 % of control.

Regarding `O=C(CF)CCl`, the T/C runs as follows: (dose: 0.87 mg/kg/injection, schedule: Q01DX009 (ip), vehicle: Klucel (hydroxypropylcellulose) (HPC)) 102 % of control; (dose: 1.75 mg/kg/injection, schedule: Q01DX009 (ip), vehicle: Klucel (hydroxypropylcellulose) (HPC)) 105 % of control; (dose: 3.5 mg/kg/injection, schedule: Q01DX009 (ip), vehicle: Klucel (hydroxypropylcellulose) (HPC)) 110 % of control; (dose: 14.0 mg/kg/injection, schedule: Q04DX003 (ip), vehicle: saline) 96 % of control; (dose: 28.0 mg/kg/injection, schedule: Q04DX003 (ip), vehicle: saline) 112 % of control.

For `O=CC1(C(O)C2SCCCS2)SCCCS1` (centres undefined), the T/C runs as follows: (dose: 100.0 mg/kg/injection, schedule: Q01DX001 (ip), vehicle: other) 113 % of control; (dose: 200.0 mg/kg/injection, schedule: Q01DX001 (ip), vehicle: other) 101 % of control; (dose: 400.0 mg/kg/injection, schedule: Q01DX001 (ip), vehicle: other) 97 % of control.

As to `CON1C(=O)C2(CCCCC2)C2=NOC3C(Br)CCCC231` (centres undefined), the T/C by setting is: under setting [1], 92 % of control; under setting [5], 106 % of control; under setting [2], 95 % of control; under setting [6], 97 % of control; under setting [3], 95 % of control; under setting [7], 95 % of control.

On to `CCOC(=O)OC(=O)CNC(=O)CN1C(=O)c2ccccc2C1=O`, for which the T/C was 100 % of control (dose: 100.0 mg/kg/injection, schedule: Q01DX001 (ip), vehicle: saline); 94 % of control (dose: 200.0 mg/kg/injection, schedule: Q01DX001 (ip), vehicle: saline); 91 % of control (dose: 400.0 mg/kg/injection, schedule: Q01DX001 (ip), vehicle: saline).

For `CC(O)c1cccnc1` (centres undefined), the T/C by setting is: (dose: 10.0 mg/kg/injection, schedule: Q01DX009 (ip), vehicle: saline) 99 % of control; (dose: 10.0 mg/kg/injection, schedule: Q04DX003 (ip), vehicle: saline) 97 % of control; (dose: 20.0 mg/kg/injection, schedule: Q01DX009 (ip), vehicle: saline) 99 % of control; (dose: 20.0 mg/kg/injection, schedule: Q04DX003 (ip), vehicle: saline) 105 % of control; (dose: 40.0 mg/kg/injection, schedule: Q01DX009 (ip), vehicle: saline) 97 % of control; (dose: 40.0 mg/kg/injection, schedule: Q04DX003 (ip), vehicle: saline) 100 % of control.

As for `CCCCCCC(N)C(=O)O` (centres undefined), the T/C is, setting by setting: under setting [14], 95 % of control; under setting [15], 104 % of control; under setting [4], 100 % of control; under setting [16], 96 % of control; under setting [17], 100 % of control; under setting [18], 103 % of control.

With `CC(=O)OC1CCC2(C)C(=CCC3C2CCC2(C)C3CC3C(c4ccccc4C)=NN(c4ccccc4)C32C#N)C1` (centres undefined), the T/C is 102 % of control (dose: 12.5 mg/kg/injection, schedule: Q04DX002 (ip), vehicle: Klucel (hydroxypropylcellulose) (HPC)); 97 % of control under setting [14]; 97 % of control under setting [15].

Regarding `C[C@]1(O)CC[C@H]2[C@@H]3CCC4=CC(=O)CC[C@]4(C)[C@@]3(F)C(=O)C[C@@]21C`, the T/C is 101 % of control under setting [11]; 92 % of control (dose: 100.0 mg/kg/injection, schedule: Q04DX003 (ip), vehicle: other); 101 % of control under setting [12]; 108 % of control (dose: 200.0 mg/kg/injection, schedule: Q04DX003 (ip), vehicle: other); 95 % of control under setting [13]; 94 % of control (dose: 400.0 mg/kg/injection, schedule: Q04DX003 (ip), vehicle: other).

Consider `Nc1nc(N)c(N=O)c(Nc2ccc(O)cc2)n1`, for which the T/C by setting is: under setting [16], 103 % of control; (dose: 200.0 mg/kg/injection, schedule: Q01DX Z (ip), vehicle: methylcellulose (MC)) 91 % of control; under setting [17], 97 % of control; under setting [18], 100 % of control.

As to `CS(=O)(=O)OCOS(C)(=O)=O`, the T/C was 104 % of control under setting [8]; 96 % of control (dose: 12.5 mg/kg/injection, schedule: Q01DX009 (ip), vehicle: saline); 101 % of control under setting [9]; 100 % of control (dose: 25.0 mg/kg/injection, schedule: Q01DX009 (ip), vehicle: saline); 120 % of control under setting [10]; 119 % of control (dose: 50.0 mg/kg/injection, schedule: Q04DX002 (ip), vehicle: saline).

`Clc1ccc(Cl)c(OCC2=NCCN2)c1`: the T/C by setting is: (dose: 20.0 mg/kg/injection, schedule: Q04DX003 (ip), vehicle: Klucel (hydroxypropylcellulose) (HPC)) 102 % of control; (dose: 40.0 mg/kg/injection, schedule: Q04DX003 (ip), vehicle: Klucel (hydroxypropylcellulose) (HPC)) 101 % of control.

As for `CCCCN=C=NCCCC`, the T/C is, setting by setting: (dose: 0.05 mg/kg/injection, schedule: Q01DX Z (ip), vehicle: saline) 96 % of control; (dose: 0.08 mg/kg/injection, schedule: Q01DX Z (ip), vehicle: saline) 90 % of control; (dose: 0.12 mg/kg/injection, schedule: Q01DX Z (ip), vehicle: saline) 104 % of control; (dose: 100.0 mg/kg/injection, schedule: Q01DX001 (ip), vehicle: Klucel (hydroxypropylcellulose) (HPC)) 93 % of control; (dose: 200.0 mg/kg/injection, schedule: Q01DX001 (ip), vehicle: Klucel (hydroxypropylcellulose) (HPC)) 93 % of control.

Regarding `C/C(=C\Br)CBr`, the T/C (dose: 100.0 mg/kg/injection, schedule: Q01DX009 (ip), vehicle: acetone) was 97 % of control.

The values are drawn from PubChem BioAssay AID248 (DTP/NCI, 2004).
